Counter-ions that a name gives are not always drawn. Like-named read-outs stand apart in the source and are kept apart here.
Columns and labels:
rPEDV-NLuc = assay: microbe, parasite or virus in culture; assay type: cell-based, Porcine epidemic diarrhea virus (PEDV) YN150 strain; settings: for IC50: Vero cells, rPEDV-NLuc MOI 0.01, 1 h pre-treatment, 1.25-10 μM, NLuc activity at 20 h post-infection; for SI: selective index from CC50 and IC50
in vitro = settings: African green monkey
PEDV-induced ROS = assay: Detection of PEDV-induced intracellular ROS production with DCFH-DA; assay type: cell-based; settings: 10 μM, wild-type PEDV MOI 0.01, Vero cells, 16 h post-infection
wild-type PEDV = assay: Confirmation of anti-PEDV activity with wild-type PEDV by TCID50 in Vero cells; assay type: cell-based, Porcine epidemic diarrhea virus (PEDV); settings: wild-type PEDV MOI 0.01, Vero cells, TCID50 and IFA; antioxidants 2.5, 5, 10 μM; NAC 50, 100, 200 μM
[1] = Porcine epidemic diarrhea virus, Vero

Row | Compound | IC50 (rPEDV-NLuc; read-out: IC50) [µM] | SI (rPEDV-NLuc) | CC50 (Vero cells; Vero cells, MTT assay) [µM] | IC50 (rPEDV-NLuc; [1]) [µM] | CC50 (in vitro) [µM] | also measured
1 | COc1cc(/C=C/c2ccc(O)c(O)c2)cc(OC)c1 [3′-Hydroxypterostilbene] | 4.29 | >23.29 | > 100 |  |  | 
2 | CCc1c2c(nc3ccccc13)-c1cc3c(c(=O)n1C2)COC(=O)[C@]3(O)CC [7-Ethylcamptothecin] | < 1.25 | >80 | > 100 |  |  | 
3 | COc1cc(O)cc(O)c1C(=O)/C=C/c1ccccc1 [(E)-Cardamonin] | 2.15 | >46.44 | > 100 |  |  | 
4 | C[C@@H]1[C@H](O)[C@@H](C)/C=C/C=C/C=C/C=C/C=C/C=C/C=C/[C@H](O[C@@H]2O[C@H](C)[C@@H](O)[C@H](N)[C@@H]2O)C[C@@H]2O[C@](O)(C[C@@H](O)C[C@@H](O)[C@H](O)CC[C@@H](O)C[C@@H](O)CC(=O)O[C@H]1C)C[C@H](O)[C@H]2C(=O)O [Amphotericin B, reference compound] |  | >34.42 |  | 2.91 | > 100 | 
5 | C=C(C)[C@@H]1CC[C@]2(C(=O)O)CC[C@]3(C)[C@H](CC[C@@H]4[C@@]5(C)CCC(=O)C(C)(C)[C@@H]5CC[C@]43C)[C@@H]12 [Betulonic acid] | < 1.25 | >49.52 | 61.9 |  |  | DCFH-DA fluorescence in PEDV-infected cells (fluorescence microscopy) (PEDV-induced ROS): only a few fluorescence signals were detected
6 | O=C(/C=C/c1ccc(O)c(O)c1)OCCc1ccccc1 [Caffeic Acid Phenethyl Ester] |  | >57.63 |  | 1.74 | > 100 | DCFH-DA fluorescence in PEDV-infected cells (fluorescence microscopy) (PEDV-induced ROS): only a few fluorescence signals were detected
7 | C[C@@]1(C(=O)O)CC[C@]2(C)CC[C@]3(C)C4=CC(=O)c5c(cc(O)c(O)c5C=O)[C@]4(C)CC[C@@]3(C)[C@@H]2C1 [Demethylzeylasteral] | 2.37 | 16.27 |  |  |  | CC50 (Vero cells): 38.6 µM
8 | CC1=C(C(=O)OCCN(Cc2ccccc2)c2ccccc2)C(c2cccc([N+](=O)[O-])c2)C(P2(=O)OCC(C)(C)CO2)=C(C)N1 (centres unmarked) [Efonidipine, reference compound] |  | >17.93 |  | 5.58 | > 100 | 
9 | Cc1cc(O)c2c(c1)C(=O)c1cc(O)cc(O)c1C2=O [Emodin] |  | >50 |  | 2.1 | > 100 | 
10 | O=c1ccc2cc(O)c(O)cc2o1 [Esculetin] |  | >16.75 |  | 5.97 | > 100 | DCFH-DA fluorescence in PEDV-infected cells (fluorescence microscopy) (PEDV-induced ROS): only a few fluorescence signals were detected
11 | COc1ccc2c(c1)[nH]c1c(C)nccc12 [Harmine hydrochloride] |  | >75.04 |  | 1.33 | > 100 | 
12 | COc1ccc2c(c1)[nH]c1c(C)nccc12 [Harmine] |  | >51.10 |  |  |  | IC50 (rPEDV-NLuc): 1.96 µM
13 | C=CC(C)(C)c1cc(/C=C/C(=O)c2ccc(O)cc2)c(OC)cc1O [Licochalcone A] | 4 | >25 | > 100 |  |  | 
14 | C[C@H](CCC(=O)O)[C@H]1CC[C@H]2[C@@H]3CC[C@@H]4C[C@H](O)CC[C@]4(C)[C@H]3CC[C@]12C [Lithocholic acid] |  | >42.12 |  | 2.37 | > 100 | DCFH-DA fluorescence in PEDV-infected cells (fluorescence microscopy) (PEDV-induced ROS): only a few fluorescence signals were detected
15 | CC(=O)N[C@@H](CS)C(=O)O [NAC, N-acetyl-L-cysteine] |  |  |  |  |  | inhibition of PEDV replication, dose dependence (wild-type PEDV): exhibited anti-PEDV activity in a dose-dependent manner
16 | CC(Cc1ccc(O)c(O)c1)C(C)Cc1ccc(O)c(O)c1 (centres unmarked) [Nordihydroguaiaretic acid] | 5 | >19.99 | > 100 |  |  | DCFH-DA fluorescence in PEDV-infected cells (fluorescence microscopy) (PEDV-induced ROS): only a few fluorescence signals were detected
17 | C=C1C(=O)[C@]23[C@H](O)[C@H]1CC[C@H]2[C@@]12CO[C@]3(O)[C@@H](O)[C@@H]1C(C)(C)CC[C@@H]2O [Oridonin] |  |  |  | 3 | 35 | 
18 | C=CC1=C(C)c2cc3[nH]c(cc4nc(cc5[nH]c(cc1n2)c(C)c5CCC(=O)O)C(CCC(=O)O)=C4C)c(C)c3C=C [Protoporphyrin IX] |  | >80 |  | < 1.25 | > 100 | 
19 | CC[C@]12C=CCN3CC[C@]4(C(=C(C(=O)OC)C1)Nc1ccccc14)[C@@H]32.Cl [Tabersonine hydrochloride] | 4.3 | 19.23 | 82.6 |  |  | 
20 | C[C@H]1[C@H](C)CC[C@]2(C(=O)O)CC[C@]3(C)C(=CC[C@@H]4[C@@]5(C)CCC(=O)C(C)(C)[C@@H]5CC[C@]43C)[C@H]12 [Ursonic acid] |  | 19.23 |  | 2.13 | 41 | DCFH-DA fluorescence in PEDV-infected cells (fluorescence microscopy) (PEDV-induced ROS): only a few fluorescence signals were detected
21 | Cc1cc2c(C(C)C)c(O)c(O)c(C=O)c2c(O)c1-c1c(C)cc2c(C(C)C)c(O)c(O)c(C=O)c2c1O [gossypol-Acetic acid] |  | >30 |  | 2.9 | > 100 | 
22 | Tannic acid | 4.37 | >22.89 | > 100 |  |  | 
23 | Tubeimoside I | 4.21 | 17.76 |  |  |  | CC50 (Vero cells): 74.8 µM
